The values below come from the supplement of paper PMC10307832.

Assay in all cases: relative viability (nuclei count vs DMSO), 5 days (fraction); higher = more cells survive
Compound in the test “Vandetanib + Trametinib”: COc1cc2/c(=N/c3ccc(Br)cc3F)nc[nH]c2cc1OCC1CCN(C)CC1 [Vandetanib] + CC(=O)Nc1cccc(-n2c(=O)n(C3CC3)c(=O)c3c(Nc4ccc(I)cc4F)n(C)c(=O)c(C)c32)c1 [Trametinib] (partner 0.02 µM)
The method, boiled down: (§1)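 Relative viability is defined as nuclei in treated wells over nuclei in vehicle wells. Duplicate plates were run and medians reported. Lung cancer cell lines in 1536-well plates were dosed by pin tool one day after seeding, with one drug or with a fixed anchor-drug dose plus five library-drug doses (not always all listed) in √10 steps, and nuclei were counted after 5 days.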

Compound in test [1]: C1=CC=C2C(=C1)N=C(S2)C(C#N)C3=NC(=NC=C3)NCCC4=CN=CC=C4 + COc1cc2c(Oc3ccc(NC(=O)C4(C(=O)Nc5ccc(F)cc5)CC4)cc3F)ccnc2cc1OCCCN1CCOCC1 [Foretinib] (partner 0.25 µM)
The method, boiled down: as §1

Compound in the test “NVP-TAE684 + Palbociclib”: COc1cc(N2CCC(N3CCN(C)CC3)CC2)ccc1Nc1ncc(Cl)c(Nc2ccccc2S(=O)(=O)C(C)C)n1 [NVP-TAE684] + CC(=O)c1c(C)c2cnc(Nc3ccc(N4CCNCC4)cn3)nc2n(C2CCCC2)c1=O [Palbociclib] (partner 0.5 µM)
The essentials:
as §1

Compound in the test “CUDC-101 + Olaparib”: C#Cc1cccc(Nc2ncnc3cc(OC)c(OCCCCCCC(=O)NO)cc23)c1 [CUDC-101] + O=C(c1cc(Cc2n[nH]c(=O)c3ccccc23)ccc1F)N1CCN(C(=O)C2CC2)CC1 [Olaparib] (partner 8 µM)
The essentials:
as §1

Consider UMC-11, for which the relative viability with Vandetanib + Trametinib (first compound 0.02 µM) amounted to 0.82; with Vandetanib + Trametinib (first compound 0.06325 µM) it was 0.674; in the test with Vandetanib + Trametinib (first compound 0.2 µM), 0.627; in the test with Vandetanib + Trametinib (first compound 0.6325 µM), 0.632; with Vandetanib + Trametinib (first compound 2 µM), 0.583; in test [1] (first compound 0.005 µM), 0.908. Also, the relative viability worked out at 0.993 in test [1] (first compound 0.01581 µM); 0.999 in test [1] (first compound 0.05 µM); 1.01 in test [1] (first compound 0.1581 µM); 1.05 in test [1] (first compound 0.5 µM); 0.344 with NVP-TAE684 + Palbociclib (first compound 0.2 µM); 0.326 in the test with NVP-TAE684 + Palbociclib (first compound 0.6325 µM). Further, the relative viability was determined as 0.26 with NVP-TAE684 + Palbociclib (first compound 2 µM); 0.29 in the test with CUDC-101 + Olaparib (first compound 0.01 µM); 0.707 in the test with CUDC-101 + Olaparib (first compound 0.03162 µM); 0.377 with CUDC-101 + Olaparib (first compound 0.1 µM); 0.237 with CUDC-101 + Olaparib (first compound 0.3162 µM); 0.119 with CUDC-101 + Olaparib (first compound 1 µM).
